Data reported in patent publication US12589087B2, “Enantiomer selective action on neurotransmission” (The Board of Trustees of the Leland Stanford Junior …, priority 2021, dated 2026).

Columns and labels:
[1] = test system: mouse hippocampal slice cultures; test: Kainic acid neurodegeneration in hippocampal slice cultures (propidium iodide); type: cell-based
Procedure: We employed a standard technique of ex vivo experimentation to determine the efficacy of 2MeGlu, 2MeGln, and 4APA to prevent neurodegeneration. Mouse hippocampal slice cultures were prepared and then exposed to one of the three test compounds at either 5 or 50 μM for one hour. Then media was changed to contain either 2 or 5 μM kanic acid (KA) for 24 hr. […] After 24, the amount of neurodegeneration was assayed with propidium iodide staining. Increasing the dose of KA led to greater neurodegeneration at 5 μM than at 2 μM.

[2] = test system: Line 41 mice; test: Transgenic Aβ model of AD, behavior tests; type: in vivo; conditions: 10 mg/kg/d IP for 6 weeks
Procedure: Cerebral Aβ accumulation is a core feature of AD. Since memantine, a glutamate receptor subtype antagonist is an approved treatment for people with AD, we tested whether our false glutamatergic neurotransmitter might be therapeutic in a transgenic model of AD. Four month old Line 41 male mice were treated with S-2MeGlu at 10 mg/kg/d IP for 6 weeks with behavior tested using activity chamber, Y maze, novel object and novel place recognition, Morris water maze, and fear conditioning.

**Q.** How did the reduction of neurodegeneration ([1]; 50 μM compound, lower dose of KA (2 μM)) turn out when `CC(N)(CCC(N)=O)C(=O)O` (racemic) [rac-2MeGln, rac-2-methylglutamine] was run?
**A.** approximately 50%

**Q.** What about the “neuroprotection at the higher dose of KA” value ([1]; 5 or 50 μM compound, 5 μM KA) of the same molecule?
**A.** Neither dose of 2MeGlu or 2MeGln was neuroprotective

**Q.** Which “Aβ accumulation by immunohistochemistry” value [2] does the source give for `C[C@](N)(CCC(=O)O)C(=O)O` [(S)-2MeGlu, (S)-2-methylglutamic acid] here?
**A.** no change in Aβ accumulation

**Q.** What about the “behavior tests (activity chamber, Y maze, novel object and place recognition, Morris water maze, fear conditioning)” value [2] of the same molecule?
**A.** only rescued performance in the Y maze

**Q.** What about the “body weights or deaths” value [2] of the same molecule?
**A.** no difference in body weights or any deaths
